Laboratory results reported in publication PMC8253220, “Molecular design, synthesis and in vitro biological evaluation of thienopyrimidine–hydroxamic acids as chimeric kinase HDAC inhibitors: a challenging approach to combat cancer” (Journal of Enzyme Inhibition and Medicinal Chemistry, 2021).
Where “and” joins values, the source holds several entries; their conditions need not be identical. Equal values may be shown once.

Assays:
Assay in all cases: NCI one-dose screen
Assay type in all cases: cell-based, human
COLO 205 = details: Colon COLO 205, 10 µM single dose
How it was run: (§1)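 At 10 μM, a single concentration, compounds were evaluated for antiproliferative effect in the NCI 60-line screen, with growth expressed relative to untreated control cells.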

NCI-H522 = details: NSCLC NCI-H522, 10 µM single dose
How it was run: (§2)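 One concentration (10 μM) applied to each line of the full NCI-60 panel; percent growth compared against untreated cells.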

SW-620 = details: Colon SW-620, 10 µM single dose
How it was run: (§3)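 Compounds were tested at a single dose of 10 μM across the full NCI-60 cell line panel. Growth was expressed as percent growth relative to untreated control cells, reported as percent inhibition.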

SK-MEL-28 = details: Melanoma SK-MEL-28, 10 µM single dose
How it was run: as §3

HCT-15 = details: Colon HCT-15, 10 µM single dose
How it was run: as §1

SK-MEL-5 = details: Melanoma SK-MEL-5, 10 µM single dose
How it was run: as §1

DU-145 = details: Prostate DU-145, 10 µM single dose
How it was run: as §1

OVCAR-4 = details: Ovarian OVCAR-4, 10 µM single dose
How it was run: as §1

U251 = details: CNS U251, 10 µM single dose
How it was run: as §2

HOP-62 = details: NSCLC HOP-62, 10 µM single dose
How it was run: as §1

PC-3 = details: Prostate PC-3, 10 µM single dose
How it was run: as §3

SF-268 = details: CNS SF-268, 10 µM single dose
How it was run: (§4)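 Following the standard NCI-60 protocol, compounds were applied once at 10 μM to all 60 cancer lines. Read-out is percent growth versus untreated controls, expressed as inhibition %.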

OVCAR-8 = details: Ovarian OVCAR-8, 10 µM single dose
How it was run: as §1

NCI-H23 = details: NSCLC NCI-H23, 10 µM single dose
How it was run: as §4

MDA-MB-231/ATCC = details: Breast MDA-MB-231/ATCC, 10 µM single dose
How it was run: as §1

HOP-92 = details: NSCLC HOP-92, 10 µM single dose
How it was run: as §1

ACHN = details: Renal ACHN, 10 µM single dose
How it was run: as §1

IGROV1 = details: Ovarian IGROV1, 10 µM single dose
How it was run: as §1

LOX IMVI = details: Melanoma LOX IMVI, 10 µM single dose
How it was run: as §1

SN12C = details: Renal SN12C, 10 µM single dose
How it was run: as §1

MCF7 = details: Breast MCF7, 10 µM single dose
How it was run: as §4

BT-549 = details: Breast BT-549, 10 µM single dose
How it was run: as §1

OVCAR-3 = details: Ovarian OVCAR-3, 10 µM single dose
How it was run: as §1

MDA-MB-468 = details: Breast MDA-MB-468, 10 µM single dose
How it was run: as §4

K-562 = details: Leukemia K-562, 10 µM single dose
How it was run: as §1

OVCAR-5 = details: Ovarian OVCAR-5, 10 µM single dose
How it was run: as §1

EKVX = details: NSCLC EKVX, 10 µM single dose
How it was run: as §2

SNB-75 = details: CNS SNB-75, 10 µM single dose
How it was run: as §2

MALME-3M = details: Melanoma MALME-3M, 10 µM single dose
How it was run: as §1

HCC-2998 = details: Colon HCC-2998, 10 µM single dose
How it was run: as §1

CCRF-CEM = details: Leukemia CCRF-CEM, 10 µM single dose
How it was run: as §1

NCI-H226 = details: NSCLC NCI-H226, 10 µM single dose
How it was run: as §2

TK-10 = details: Renal TK-10, 10 µM single dose
How it was run: as §1

RXF 393 = details: Renal RXF 393, 10 µM single dose
How it was run: as §1

786-0 = details: Renal 786-0, 10 µM single dose
How it was run: as §1

Compound	Growth Percent (COLO 205)	Growth Percent (NCI-H522)	Growth Percent (SW-620)	Growth Percent (SK-MEL-28)	Growth Percent (HCT-15)	Growth Percent (SK-MEL-5)	Growth Percent (DU-145)	Growth Percent (OVCAR-4)	Growth Percent (U251)	Growth Percent (HOP-62)	Growth Percent (PC-3)	Growth Percent (SF-268)	Growth Percent (OVCAR-8)	Growth Percent (NCI-H23)	Growth Percent (MDA-MB-231/ATCC)	Growth Percent (HOP-92)	Growth Percent (ACHN)	Growth Percent (IGROV1)	Growth Percent (LOX IMVI)	Growth Percent (SN12C)	also measured
Cc1c(C(=O)NCCC(=O)NO)sc2ncnc(Nc3ccccc3)c12 [Compound 19b, N-(3-(hydroxyamino)-3-oxopropyl)-5-methyl-4-(phenylamino)thieno[2,3-d]pyrimidine-6-carboxamide]	110.7% and 110.74%	90.5% and 90.58%	99.6% and 99.64%	107.9% and 107.91%	95.0% and 95.07%	94.4% and 94.42%	108.0% and 108.08%	104.9% and 104.94%	101.5% and 101.54%	100.4% and 100.46%	105.1% and 105.18%	97.0%	99.4% and 99.45%	95.7% and 95.71%	101.7% and 101.73%	102.5%	106.3% and 106.37%	101.8% and 101.82%	93.7%	98.5% and 98.51%	Growth Percent (MCF7): 92.3% and 92.31%; Growth Percent (BT-549): 109.1% and 109.16%; Growth Percent (OVCAR-3): 115.3% and 115.34%; Growth Percent (MDA-MB-468): 92.2% and 92.23%; Growth Percent (K-562): 101.9% and 101.92%; Growth Percent (OVCAR-5): 102.0% and 102.09%; Growth Percent (EKVX): 87.3% and 87.34%; Growth Percent (SNB-75): 81.4% and 81.46%; Growth Percent (MALME-3M): 102.5% and 102.54%; Growth Percent (HCC-2998): 97.7%; Growth Percent (CCRF-CEM): 101.13%; Growth Percent (NCI-H226): 89.4% and 89.44%; Growth Percent (TK-10): 108.2% and 108.29%; Growth Percent (RXF 393): 94.1% and 94.17%; Growth Percent (786-0): 102.5% and 102.58%
Cc1c(C(=O)NO)sc2ncnc(Nc3ccc(F)c(Cl)c3)c12 [Compound 15d, 4–(3-chloro-4-fluorophenylamino)-N-hydroxy-5-methylthieno[2,3-d]pyrimidine-6-carboxamide]	112.3% and 112.34%	88.1% and 88.16%	108.2% and 108.22%	109.6% and 109.62%	96.0% and 96.09%	100.5% and 100.59%	101.9% and 101.96%	102.2% and 102.21%	98.2%	99.3%	110.4% and 110.42%	96.5%	105.0% and 105.01%	95.7% and 95.72%	97.2% and 97.25%	120.5% and 120.52%	97.6% and 97.62%	103.9% and 103.95%	101.3% and 101.32%	100.1% and 100.14%	Growth Percent (MCF7): 93.8% and 93.88%; Growth Percent (BT-549): 114.0% and 114.08%; Growth Percent (OVCAR-3): 108.5% and 108.52%; Growth Percent (MDA-MB-468): 85.6% and 85.68%; Growth Percent (K-562): 105.3% and 105.38%; Growth Percent (OVCAR-5): 101.3% and 101.35%; Growth Percent (EKVX): 88.0% and 88.08%; Growth Percent (SNB-75): 99.2%; Growth Percent (MALME-3M): 116.1% and 116.15%; Growth Percent (HCC-2998): 102.4% and 102.42%; Growth Percent (NCI-H226): 103.2% and 103.24%; Growth Percent (TK-10): 118.5% and 118.53%; Growth Percent (RXF 393): 100.3% and 100.37%; Growth Percent (786-0): 94.4% and 94.41%
Cc1c(C(=O)NO)sc2ncnc(Nc3ccc(NC(=S)Nc4ccccc4)cc3)c12 [Compound 7d, 1–(4-(6-(hydroxycarbamoyl)-5-methylthieno[2,3-d]pyrimidin-4-ylamino)phenyl)-3-phenylthiourea]	112.9% and 112.97%	92.1% and 92.13%	104.8% and 104.86%	105.0% and 105.07%	95.3% and 95.39%	101.2% and 101.24%	106.96%	104.6% and 104.62%	104.0% and 104.08%	100.8% and 100.85%	105.6% and 105.68%	98.1% and 98.17%	103.1%	96.5% and 96.54%	94.9% and 94.96%	114.8% and 114.88%	105.4% and 105.43%	111.5% and 111.55%	93.7% and 93.76%	100.8% and 100.86%	Growth Percent (MCF7): 95.2% and 95.28%; Growth Percent (BT-549): 106.3% and 106.33%; Growth Percent (OVCAR-3): 111.0% and 111.03%; Growth Percent (MDA-MB-468): 103.9% and 103.92%; Growth Percent (K-562): 103.0% and 103.01%; Growth Percent (OVCAR-5): 102.8%; Growth Percent (EKVX): 93.6% and 93.61%; Growth Percent (SNB-75): 87.9% and 87.95%; Growth Percent (MALME-3M): 99.4% and 99.48%; Growth Percent (HCC-2998): 99.8% and 99.86%; Growth Percent (NCI-H226): 103.8% and 103.88%; Growth Percent (TK-10): 106.3% and 106.37%; Growth Percent (RXF 393): 103.7% and 103.72%; Growth Percent (786-0): 99.1% and 99.11%
